The values that follow come from patent publication US20140162974A1, “METHODS FOR MODULATION OF PHOSPHORUS AND FGF23” (Luitpold Pharmaceuticals, Inc., priority 2012, published 2014).

The nature of data set [1]: 13-week cumulative dose pre-clinical studies. The data set is classed as in vivo, dogs and rats. The following applies: over 13 weeks; clinical signs of iron accumulation in liver, spleen, kidneys.
The next data set concerns serum phosphate. The experiment in a line: VIT-30: serum phosphate. The data set is classed as in vivo, human. From the text:
FIG. 1 is a line and scatter plot showing mean changes in phosphate (left vertical axis) or changes in FGF-23 (right vertical axis) with respect to baseline value at each study day (0, 7, 14, 28, or 56) as indicated on the Horizontal (X) axis for trial VIT30. […] Further details regarding methodology are provided in Example 2.
Study visits were on Days 0, 3, 7, 10, 14, 28, 56, and 120. A phone assessment occurred on Day 90.
Clinical laboratory variables were presented in 2 ways. First, change from baseline to Day 7, Day 14, Day 28, and Day 56 were summarized. Baseline was defined as the last value obtained prior to the first injection of study drug. Second, the number and proportion of subjects with treatment-emergent PCS laboratory values were tabulated. Treatment-emergent PCS values were those in which the baseline value was normal and post-baseline value was abnormal (i.e., met Grade 3 or Grade 4 toxicity criteria from the National Cancer Institute Common Toxicity Criteria for Adverse Events, Version 3.0 [NCI CTCAE]).
For serum phosphate and platelet count, change from baseline to the smallest value after baseline and final value were also summarized. For subjects whose baseline value was above the lower reference range and who had at least 1 value below the lower reference range after baseline, the following were summarized: the number of days from baseline to the first value below the lower reference range and the number of days from the first value below the lower reference range until the first succeeding value within the reference range.

The conditions of data set [2]: in vivo, cited from earlier work.

Take “polynuclear iron (III)-hydroxide 4(R)-(poly-(1→4)-O-α-glucopyranosyl)-oxy-2(R),3(S),5(R),6-tetrahydroxy-hexanoate [FCM]”: the “cumulative dose with no observed adverse effect level” value in data set [1] is listed as “up to 117 mg iron/kg body weight”. Moreover, the “mean changes in phosphate with respect to baseline (FIG. 1)” value in the data set on serum phosphate (Days 7, 14, 28, 56, trial VIT30) was “decreased with respect to baseline values”. For the same substance, the “incidence of serum phosphate<2.0 mg/dL” value with serum phosphate (chronic kidney disease trial of 2500 patients, 120 days of follow-up (see Example 2)) amounted to 18.5%. For the same substance, the “proportion of subjects with PCS low phosphorus” value with serum phosphate (treatment-emergent potentially clinically significant value) was found to be 18.5%. The “tissue distribution after intravenous administration” value in data set [2] (iv) is “mainly found in the liver, spleen, and bone marrow”. Moreover, in data set [2], the “projected calculated terminal half-life (t1/2)” value is “approximately 16 hours”.
